The values that follow come from ChEMBL document CHEMBL1148881 (Bioorg Med Chem Lett, 2007).

The structures appear in SMILES notation. pEC50, pIC50: −log10 of the molar value. Where only a bound is given, the exact number is not on record here.

The target in assay [1] is T1, Peroxisome proliferator-activated receptor alpha (Homo sapiens, UniProt Q07869).
T1 sequence (Q07869 whole entry): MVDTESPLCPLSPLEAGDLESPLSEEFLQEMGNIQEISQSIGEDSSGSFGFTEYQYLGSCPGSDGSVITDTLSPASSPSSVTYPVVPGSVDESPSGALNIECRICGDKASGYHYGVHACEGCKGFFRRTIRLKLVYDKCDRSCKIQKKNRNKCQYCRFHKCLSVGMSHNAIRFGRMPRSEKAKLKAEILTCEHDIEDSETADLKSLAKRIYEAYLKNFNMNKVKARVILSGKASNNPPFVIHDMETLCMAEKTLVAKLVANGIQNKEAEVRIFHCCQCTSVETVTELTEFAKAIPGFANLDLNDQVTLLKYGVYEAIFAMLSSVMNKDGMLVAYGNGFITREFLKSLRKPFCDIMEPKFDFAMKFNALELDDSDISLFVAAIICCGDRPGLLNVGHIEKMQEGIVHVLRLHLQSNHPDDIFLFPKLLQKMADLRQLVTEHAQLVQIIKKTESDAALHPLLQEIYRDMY
Description: Displacement of [3H]2-(4-(2-(3-(2,4-difluorophenyl)-1-heptylureido)ethyl)phenoxy)-2-methylbutanoic acid from human PPARalpha after 30 mins by SPA assay

In assay [2] the target is T2, Peroxisome proliferator-activated receptor delta (Homo sapiens, UniProt Q03181).
T2 sequence (Q03181 whole entry): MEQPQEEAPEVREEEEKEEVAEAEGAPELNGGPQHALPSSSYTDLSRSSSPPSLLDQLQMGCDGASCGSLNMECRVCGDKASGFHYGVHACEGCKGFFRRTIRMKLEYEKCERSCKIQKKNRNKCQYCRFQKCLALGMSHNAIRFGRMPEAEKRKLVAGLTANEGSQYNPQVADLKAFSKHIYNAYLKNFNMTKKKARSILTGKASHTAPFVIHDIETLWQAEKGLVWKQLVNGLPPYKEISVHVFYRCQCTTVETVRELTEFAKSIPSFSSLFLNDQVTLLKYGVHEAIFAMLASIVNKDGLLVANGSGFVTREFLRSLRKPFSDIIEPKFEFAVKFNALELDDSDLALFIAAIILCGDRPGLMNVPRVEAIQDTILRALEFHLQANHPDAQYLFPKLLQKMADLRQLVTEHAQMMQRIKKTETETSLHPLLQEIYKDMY
The format is functional, cell-based, HepG2.
Description: Agonist activity at human PPARdelta expressed in HepG2 cells after 16 hrs by luciferase reporter gene assay

The target in assay [3] is T2, Peroxisome proliferator-activated receptor delta.
Description: Displacement of [3H]2-(4-(3-(4-acetyl-3-hydroxy-2 propyl-phenoxy)propoxy)phenoxy)acetic acid from human PPARdelta after 30 mins by SPA assay

Usually pIC50 stands for the negative decadic logarithm of the IC50, by convention in mol/L. Low readings indicate a high IC50, high ones a low IC50. In assay [1], `O=C(O)COc1ccc(SCc2ccc(OCc3ccc(C(F)(F)F)cc3)cc2)c2c1CCCO2` gave a negative logarithm of the IC50 (pIC50) of 6.10.
On to `Cc1cc(SCc2ccc(OCc3ccc(C(F)(F)F)cc3)cc2)c2c(c1OCC(=O)O)CCC2`, for which the pIC50 in assay [2] was less than 5.00; in assay [3], 6.23; in assay [1], 6.51.
In turn, `O=C(O)COc1ccc(SCc2ccc(OCc3ccc(C(F)(F)F)cc3)cc2)c2c1CCC2` had a pIC50 in assay [1] of 5.92.
In general, pEC50 refers to −log10 of the EC50, conventionally taken in molar units. Read a low pEC50 as a high EC50. The molecule `O=C(O)COc1ccc(SCc2ccc(OCc3cc(Cl)ccc3Cl)cc2)c2c1CCC2` showed a negative-log EC50 (pEC50) in assay [2] of 6.23. Also, the pIC50 in assay [3] is 7.16; in assay [1] it was 5.38.
`O=C(O)COc1ccc(SCc2ccc(OCc3ccc(F)cc3)cc2)c2c1CCC2` had a pEC50 in assay [2] of 4.87. Besides, the pIC50 in assay [3] was 6.72; in assay [1], less than 5.00.
Molecule `O=C(O)COc1ccc(SCc2cc(F)ccc2OCc2ccc(C(F)(F)F)cc2)c2c1CCC2` showed a pEC50 in assay [2] of 7.15. Further, the values for the negative-log IC50 (pIC50) in assay [3] and in assay [1] were 8.77 and less than 5.00, respectively.
As to `O=C(O)COc1ccc(SCc2ccc(OCc3ccc(OC(F)(F)F)cc3)cc2)c2c1CCC2`, the pEC50 in assay [2] is 6.28. Further, the pIC50 in assay [3] was 7.12; in assay [1] it was 6.17.
As for `COc1cc(OCC(=O)O)c(C)cc1SCc1ccc(OCc2ccc(C(F)(F)F)cc2)cc1`, in assay [1], the negative-log IC50 (pIC50) is 8.33.
With `Cc1cc(SCc2ccc(OCc3ccc(C(F)(F)F)cc3)cc2)ccc1OCC(=O)O`, in assay [2], the negative logarithm of the EC50 (pEC50) was 6.60. For the same molecule, the results for the pIC50 in assay [3] and in assay [1] were 7.72 and 6.24, respectively.
For `O=C(O)COc1ccc(SCc2ccc(OCc3ccc(Cl)cc3)cc2)c2c1CCC2`, the pEC50 in assay [2] is 6.03. The results for the pIC50 in assay [3] and in assay [1] were 7.05 and 5.41, respectively.
On the same counts, the results for `COc1ccc(COc2ccc(CSc3ccc(OCC(=O)O)c4c3CCC4)cc2)cc1` are 5.71, 6.92 and 5.31.
For the molecule `O=C(O)COc1ccc(SCc2ccc(OCc3ccccc3)cc2)c2c1CCC2`, in assay [2], the pEC50 is 5.66. Besides, the values for the pIC50 in assay [3] and in assay [1] were 6.90 and less than 5.00, respectively.
For `O=C(O)COc1ccc(SCc2ccccc2OCc2ccc(C(F)(F)F)cc2)c2c1CCC2`, the negative-log EC50 (pEC50) in assay [2] was 6.64. Besides, the negative logarithm of the IC50 (pIC50) is 7.98 in assay [3] and less than 5.00 in assay [1].
As to `O=C(O)COc1ccc(SCc2ccc(F)cc2OCc2ccc(C(F)(F)F)cc2)c2c1CCC2`, the pIC50 was 7.21 in assay [3] and 5.51 in assay [1].
For the molecule `O=C(O)COc1ccc(SCc2c(F)cccc2OCc2ccc(C(F)(F)F)cc2)c2c1CCC2`, the pEC50 in assay [2] was 5.58. Moreover, the pIC50 in assay [3] was 6.54; in assay [1] it was less than 5.00.
On the same counts, the results for `Cc1cc(SCc2ccc(OCc3ccc(C(F)(F)F)cc3)cc2)c(Cl)cc1OCC(=O)O` are 6.43, 7.70 and 6.89.
As for `Cc1cc(SCc2ccc(OCc3ccc(C(F)(F)F)cc3)cc2)c2c(c1OCC(=O)O)CCCO2`, the negative-log IC50 (pIC50) was less than 5.00 in assay [2], 6.50 in assay [3] and 6.37 in assay [1].
For the molecule `CC(C)(C)c1ccc(COc2ccc(CSc3ccc(OCC(=O)O)c4c3CCC4)cc2)cc1`, the pEC50 in assay [2] was 6.57. Besides, the pIC50 was 6.83 in assay [3] and 5.81 in assay [1].
On to `O=C(O)COc1ccc(SCc2ccc(OCc3ccc(F)cc3C(F)(F)F)cc2)c2c1CCC2`, for which the negative-log EC50 (pEC50) in assay [2] was 5.76. The pIC50 in assay [3] was 6.45; in assay [1], 5.46.
`O=C(O)COc1ccc(SCc2cccc(F)c2OCc2ccc(C(F)(F)F)cc2)c2c1CCC2`: the pIC50 in assay [3] was 6.95; in assay [1], 5.44.
